Some test systems named below: LXFL 529 NSCLC; M19-MEL melanoma; HOP-18 NSCLC; XF 498 CNS; DMS 273 small cell lung; RXF-631 renal; DMS 114 small cell lung; MCF7 breast; PC-3 prostate; MDA-MB-435; HS 578T breast.
Common to all, as to experiment: DTP human tumour cell line panel, 48 h

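Each compound was tested at five concentrations against cells in 96-well plates for 48 hours. The concentration for 50% growth inhibition is given as GI50. TGI denotes the concentration required for complete inhibition of growth.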

In general, TGI refers to the concentration at which net growth stops. Lower therefore signals greater sensitivity of the cells. As a reminder, the GI50 is the concentration that inhibits growth by half.

Take `Nc1nc2nc[nH]c2c(=O)[nH]1`: the TGI in the test on LXFL 529 NSCLC, in the test on M19-MEL melanoma, in the test with HOP-18 NSCLC, with XF 498 CNS and in the test with DMS 273 small cell lung was above 100 µM throughout.

`O=C(COc1ccccc1)NS(=O)(=O)c1ccccc1`: the TGI in the test on LXFL 529 NSCLC, in the test with RXF-631 renal, with M19-MEL melanoma, in the test on HOP-18 NSCLC and in the test on DMS 114 small cell lung was above 100 µM throughout.

In the case of `C[C@@]12CCC(=O)C=C1CC[C@H]1C2=CC[C@]2(C)C1CC[C@@]2(C)O` (some centres undefined), the TGI with MCF7 breast, in the test with PC-3 prostate, in the test on MDA-MB-435 and in the test on HS 578T breast was above 100 µM in each case.

Consider `O=C1OC(O)C(Oc2ccc(Cl)cc2)=C1Cl` (centres undefined), for which the TGI in the test on LXFL 529 NSCLC, in the test on RXF-631 renal, with M19-MEL melanoma, in the test with DMS 273 small cell lung and with DMS 114 small cell lung was above 100 µM throughout.

`O=C(Nc1nc2ncn(CC(COc3ccccc3)OC(=O)c3ccccc3)c2c(=O)[nH]1)c1ccccc1` (centres undefined): the TGI in the test with RXF-631 renal, in the test with M19-MEL melanoma, with XF 498 CNS, with DMS 273 small cell lung and in the test on DMS 114 small cell lung was above 100 µM throughout.

Turning to `COc1ccc([N+](=O)[O-])c(S(=O)(=O)c2ccc(Cl)cc2)n1`, the GI50 was 2.24 µM with MCF7 breast, 17.3 µM in the test with PC-3 prostate, 1.75 µM in the test on MDA-MB-435 and 13 µM with HS 578T breast. Also, the TGI in the test with MCF7 breast is 7.29 µM; with PC-3 prostate, 33.8 µM; with MDA-MB-435, 3.66 µM; in the test with HS 578T breast it was 51.1 µM.

Turning to `CC(C)(C)c1ccc(C(O)c2ccc(C(C)(C)C)cc2)cc1`, the TGI amounted to 29 µM with LXFL 529 NSCLC; 26.9 µM in the test with M19-MEL melanoma; 31.2 µM in the test on HOP-18 NSCLC; 28.4 µM in the test with XF 498 CNS; 25.9 µM in the test with DMS 273 small cell lung; 25.7 µM in the test with DMS 114 small cell lung.

On to `CSc1nc2sc3cc(Cl)ccc3n2c(=N)c1C#N`, for which the GI50 in the test with MCF7 breast was 3.31 µM; in the test on PC-3 prostate, 42.2 µM; in the test on MDA-MB-435, above 100 µM; with HS 578T breast, 2.89 µM. Besides, the TGI in the test on MCF7 breast is above 100 µM; in the test with PC-3 prostate, above 100 µM; with MDA-MB-435, above 100 µM; in the test on HS 578T breast, above 24.9 µM.

In the case of `CN(C)CC1(C)CC/C(=C\c2ccccc2)C1=O` (centres undefined), the TGI with RXF-631 renal, in the test with M19-MEL melanoma, in the test on HOP-18 NSCLC, with XF 498 CNS, in the test with DMS 273 small cell lung and in the test on DMS 114 small cell lung was above 100 µM each time.

Turning to `CC(C)(C)C(=O)C1CC(=O)c2ccccc2C1=O` (centres undefined), the TGI with RXF-631 renal, with M19-MEL melanoma, in the test on HOP-18 NSCLC, with XF 498 CNS and in the test with DMS 114 small cell lung was above 100 µM each time.

Regarding `COc1cc2nc(Nc3cccc(F)c3)nc(Nc3cc(C)[nH]n3)c2cc1OC`, the GI50 with MCF7 breast is 1.73 µM; with PC-3 prostate, 1.68 µM; in the test on MDA-MB-435, 1.63 µM; in the test on HS 578T breast, 1.86 µM. For the same molecule, the TGI amounted to 3.83 µM in the test on MCF7 breast, 3.39 µM in the test with PC-3 prostate, 3.16 µM in the test on MDA-MB-435 and 4.01 µM in the test with HS 578T breast.

Regarding `O=C(/C=C\c1ccc(Cl)cc1Cl)c1cccs1`, the TGI in the test with MCF7 breast is 41.1 µM; in the test with PC-3 prostate, 35.2 µM; in the test on MDA-MB-435, 36.2 µM; in the test with HS 578T breast, 75.3 µM.

Consider `NC1=N/C(=C2/CCNC(=O)c3[nH]c(Br)cc32)C(=O)N1`, for which the TGI with MCF7 breast is above 100 µM; in the test with M19-MEL melanoma, above 100 µM; with HOP-18 NSCLC it was above 100 µM; in the test on PC-3 prostate it was above 100 µM; in the test with MDA-MB-435, above 55.5 µM; with XF 498 CNS, above 100 µM. The TGI with HS 578T breast was above 91.2 µM; in the test with DMS 273 small cell lung it was above 100 µM; in the test with DMS 114 small cell lung, above 100 µM.

Turning to `NS(=O)(=O)c1ccc(CCN=C=S)cc1`, the GI50 was 0.808 µM in the test on MCF7 breast, 2.03 µM in the test with PC-3 prostate, 1.91 µM in the test with MDA-MB-435 and 3.21 µM in the test on HS 578T breast. For the same molecule, the TGI is 3.13 µM in the test with MCF7 breast, 5.23 µM in the test with PC-3 prostate, 3.88 µM in the test on MDA-MB-435 and 15.5 µM in the test on HS 578T breast.

With `COC(=O)CCC/C=C\C[C@H]1C=CC(=O)/C1=C/C[C@@H](O)C/C=C\CC(F)(F)F`, the GI50 with MCF7 breast was 0.393 µM; with PC-3 prostate, 2.79 µM; in the test on MDA-MB-435, 2.05 µM; with HS 578T breast it was 8.98 µM. The TGI came out at 10.3 µM in the test with MCF7 breast, 7.31 µM with PC-3 prostate, 10.6 µM in the test on MDA-MB-435 and 70.3 µM in the test with HS 578T breast.

As for `O=C(Nc1c(O)[nH]c(=S)[nH]c1=O)c1ccc2ccccc2n1`, the total growth inhibition concentration (TGI) in the test on LXFL 529 NSCLC, in the test on RXF-631 renal, with M19-MEL melanoma, in the test with HOP-18 NSCLC and in the test on DMS 114 small cell lung was above 100 µM in each case.

Consider `O=C1CCC2(CC1)SCCCS2`, for which the TGI in the test with LXFL 529 NSCLC, in the test with M19-MEL melanoma, with XF 498 CNS, in the test on DMS 273 small cell lung and with DMS 114 small cell lung was above 100 µM throughout.

As for `CCOC(=O)/C(=C/c1ccc(C#N)cc1)N(CC)CC`, the TGI with LXFL 529 NSCLC, with RXF-631 renal, with M19-MEL melanoma, in the test on HOP-18 NSCLC, in the test with XF 498 CNS and with DMS 114 small cell lung was above 100 µM throughout.

With `CCCc1nc2c(C)cc(-c3nc4ccccc4n3C)cc2n1Cc1ccc(-c2ccccc2C(=O)O)cc1`, the GI50 is 31.9 µM with MCF7 breast, 29.4 µM in the test on PC-3 prostate, 33.9 µM in the test with MDA-MB-435 and 38.1 µM with HS 578T breast. For the same molecule, the TGI with MCF7 breast, in the test on PC-3 prostate, in the test on MDA-MB-435 and with HS 578T breast was above 100 µM throughout.

Regarding `NC(=S)N/N=C1/C(=O)N(c2ccc(Cl)cc2Cl)C(=O)C(=O)C1c1nc2ccccc2s1` (centres undefined), the total growth inhibition concentration (TGI) in the test with LXFL 529 NSCLC, in the test with M19-MEL melanoma, in the test on HOP-18 NSCLC, with XF 498 CNS, with DMS 273 small cell lung and with DMS 114 small cell lung was above 100 µM throughout.

Values taken from PubChem BioAssay (NCI).
